Source: patent US7449495B2, “Retinoid derivatives with antiangiogenic, antitumoral and proapoptotic activities” (Sigma-Tau Industrie Farmaceutiche Riunite S.p.A., priority 2001, dated 2008)
Values joined by “and” are separate entries in the source; they are usually repeats but may differ in a detail not shown here. Equal entries are not always repeated.

Assays:
[1] = system: human microvascular endothelial (HMVE) cells; settings: after 96 h of treatment, cited from earlier work; for inhibition (%) at 0.5 μM: relative to vehicle alone control; for IC50: highest concentration evaluated 0.5 μM, read-out: IC50 (concentration inhibiting proliferation by 50%)
[2] = system: NB4 acute promyelocytic leukaemia cell line; test: Cytotoxicity test (sulphorodamine B), NB4; assay type: cell-based, human; settings: Homo sapiens, 24 h incubation, survival 48 h after removal, read-out: IC50 ± SD
Source text: To carry out the cytotoxicity tests, two acute promyelocytic leukaemia (APL) cell lines were used. • 1. Cell line NB4, carrying the chromosomal translocation t(15; 17) which generates the fusion protein PML/RARα. This cell line is extremely sensitive to the differentiating action of pharmaceutical doses of ATRA (10^−7-10^−6 M); • 2. Cell line HL60, which responds to ATRA less sensitively with respect to cell line NB4.
These cell lines were maintained in RPMI 1640 containing 10% foetal calf serum (FCS) and 1% glutamine.
The cytotoxicity tests were carried out using NB4 or HL-60 cells in suspension (10000/well). The cells were seeded in a volume of 250 μl in 96 well plates and incubated for 24 hours at 37° C. The following day, test compound ST 1926 [(2E)-3-[3′-(1-Adamantyl)-4′-hydroxy[1,1′-biphenyl]-4-yl]-2-propenoate/ic acid] was added at increasing concentrations, and the cells were incubated for a further 24 hours at 37° C. in a humidified atmosphere containing 5% CO2. On the 3rd day, the medium was removed by centrifuging the plate at 1600×g for 10 min and the supernatant decanted. 250 μl of PBS were added; then the plates were centrifuged again at 1600×g for 10 minutes and the supernatant decanted. 200 μl/well of RPMI 1640 medium containing 10% FCS were added and the plates were incubated at 37° C. for a further 48 hours. On the 5th day, the plates were again centrifuged at 1600×g for 10 minutes, and the medium was removed by upturning the plates, 200 μl of PBS and 50 μl of cold, 80% TCA were added. The plates were then left to incubate on ice for at least 1 hour. The TCA was removed by upturning; the plates were washed three times by immersion in distilled water and dried first on paper, then with a jet of hot air. To all wells were added 200 μl of 0.4% sulphorodamine B in 1% acetic acid. The plates were incubated at room temperature for a further 30 minutes. […] The optical density was measured using a Multiskan spectrophotometer at 540 nm.
(§1) Cell survival was determined by incubation with ST1926 for 24 hours, 48 hours after the removal of the compound. […]

[3] = system: Human prostate carcinoma PC3; test: Cytotoxicity test (sulphorodamine B), PC3; assay type: cell-based; settings: 24 h incubation, survival 48 h after removal, read-out: IC50 ± SD
Source text: (§2) Different cell lines deriving from solid tumors were also used. • 1. Human prostate carcinoma PC3 and DU145. These cell lines were maintained in RPMI 1640 medium containing 10% FCS, 1% sodium pyruvate and 1% glutamine; • 2. Human colon adenocarcinoma LoVo. This cell line was maintained in HAM's F-12 medium, containing 10% FCS and 1% glutamine. • 3. Human ovarian carcinoma such as A2780 and A2780/Dx, sensitive and resistant to drugs, respectively (doxorubicin, taxol, etoposide, vincristine); IGROV-1 and IGROV-1/Pt, sensitive and resistant to platinum-based chemotherapy, respectively, were maintained in RPMI 1640 medium containing 10% FCS, 1% sodium pyruvate and 1% glutamine; • 4. Human melanoma MeWo and MeS 2.21, glioblastoma GBM, no small cell lung carcinomas A431, NCI—H460, osteosarcomas SAOS and U2OS were maintained in RPMI 1640 medium containing 10% FCS, 1% sodium pyruvate and 1% glutamine.
(§3) The cytotoxicity tests were carried out using NB4 or HL-60 cells in suspension (10000/well). The cells were seeded in a volume of 250 μl in 96 well plates and incubated for 24 hours at 37° C. […] The optical density was measured using a Multiskan spectrophotometer at 540 nm. […]
as §1

NB4 cells = test: Pro-differentiating effect on NB4 cells (NBT); assay type: cell-based; settings: Homo sapiens, NB-4, 72 h, NB4, three days, read-out: AC50 (activating concentration for 50% cellular differentiation) ± SD
Method: NB4 cells were plated at a density of 150000 cells/ml in RPMI 1640 medium containing 10% foetal serum. The cells were then treated with ST1879 or ST1898 at decreasing concentrations starting from 0.4 μM to 0.01 μM and placed in an incubator for three days without any change of the media. To measure the differentiating effect 500000 cells from each sample were collected, centrifuged and resuspended in 1 ml of RPMI 1640 medium containing 10% serum, 1 mg/ml nitroblue tetrazolium (NBT) and 100 ng of PMA (phorbol myristyl acetate). The cells, resuspended as above, were incubated at 37° C. for 60 minutes. At the conclusion of incubation the cells were centrifuged and the precipitate resuspended in 1 ml of PBS containing 10% Triton ×100. The samples were sonicated until lysed and then read by spectrophotometer at a wavelength of 540 nm. Samples containing differentiated cells turn a purplish colour whilst the control samples and/or these with non differentiated cells remain white or much less intensely coloured. The pro-differentiating action of ST1879 or of ST1898 has been evaluated in terms of AC50 (activating concentration for 50% cellular differentiation) as reported below.

[4] = system: chicken chorioallantoic membrane vessels, bFGF induced; test: Angiostatic activity in chicken chorioallantoic membrane (CAM) model; assay type: in vivo; settings: for 12th day (72 hours), number of vessels per sponge / Δvessels: mean ± SE
Source text: The chicken chorioallantoic membrane is a very vascularised membrane in which the vessels make their appearance at the 4th day of development, develop an arteriovenal system by the 8th day of development, and actively proliferate until the 11th day.
The aim of the study was to follow vasal development in the CAM under basal conditions and in the presence of an inducer bFGF (basic Fibroblast Growth Factor) of vasoproliferation. This study used chicken embryonal eggs at the initial stage of their development. On the 3rd day of development an operation to open the shells was performed to make the vessels of the CAM visible. The treatment was administered on the 9th day of development by applying a fragment of sterile gelatine (GELFOAM Pharmacia-Upjohn) about 1 mm^3, to the CAM surface, onto which was administered the bFGF (50 ng/embryo) or the products in question, for 3 consecutive days.
The evaluation of the effect of the molecule on vasoproliferation was obtained by a comparison of the vessels at the time of zero treatment with these of later times (12th day).

[5] = system: Human colon adenocarcinoma LoVo; test: Cytotoxicity test (sulphorodamine B), LoVo; assay type: cell-based; settings: 24 h incubation, survival 48 h after removal, read-out: IC50 ± SD
Source text: as §2, §3, §1

[6] = system: human no small cell lung carcinoma NCI-H460; test: Antitumoral activity in human no small cell lung carcinoma model NCI-H460; assay type: in vivo; settings: NCI-H460, 15 mg/kg ip, q7dx3
Method: The ST1926 solution was prepared immediately before use and solubilised in cremophor:ethanol 1:1 and subsequently diluted 1:4 in buffered saline solution. The animal treatments were administered in a volume of 10 ml/kg. […] Measurements of tumor dimensions were performed using a digital calliper (Vernier Caliper) twice weekly, from the time in which the mass was measurable. The tumor mass was evaluated from the size of the two principal dimensions (length and breadth), expressed in mm, applying the formula (length×breadth^2)/2, that is, the tumor volume in mm3. For each experimental group, the percentage of tumor volume inhibition was calculated (TVI %), with respect to the control, namely (100−(T/C %). TVI was evaluated 2 days after the final administration of ST1926.
A comparison between the TVI values obtained for each group was performed using the non parametric Mann Whitney test for non-paired data, using the Instat software from GraphPad inc.

[7] = bFGF 0.05 + compound 0.25 μg/embryo

Molecule: O=C(O)/C=C/c1ccc(-c2ccc(O)c(C34CC5CC(CC(C5)C3)C4)c2)c(Cl)c1 [3-Cl-AHPC (5)]
- inhibition (%) at 0.5 μM [1]: 60%
- IC50 [1]: 300 nM

Molecule: O=C(O)c1ccc2c(Cl)c(-c3ccc(O)c(C45CC6CC(CC(C6)C4)C5)c3)ccc2c1 [5-Cl-AHPN (2)]
- inhibition (%) at 0.5 μM [1]: 45%

Molecule: COc1ccc(-c2ccc(/C=C/CO)cc2)cc1C12CC3CC(CC(C3)C1)C2 [Example 7, E-4-(3-(1-adamantyl)-4-methoxyphenyl)cinnamyl alcohol]
- melting point: 148 °C

Molecule: COc1ccc(-c2ccc(/C=C/C(=O)O)cc2)cc1C12CC3CC(CC(C3)C1)C2 [ST1898, E-4-(3-(1-adamantyl)-4-methoxyphenyl)cinnamic acid]
- IC50 [2]: 8.8 ± 0.6 µM
- IC50 [3]: 1700 ± 200 nM
- AC50 (NB4 cells): 19 nM
- Δvessels, change vs bFGF alone [4, 7]: (−71%)
- 12th day (72 hours), number of vessels per sponge [4, 7]: 10 ± 1 vessels per sponge
- Δvessels [4, 7]: 7 ± 1 vessels per sponge
- IC50 [5]: 380 ± 20 nM

Molecule: CC(=O)O[C@H]1C(=O)[C@@]2(C)[C@H]([C@H](OC(=O)c3ccccc3)[C@]3(O)C[C@H](OC(=O)[C@H](O)[C@@H](NC(=O)c4ccccc4)c4ccccc4)C(C)=C1C3(C)C)[C@]1(OC(C)=O)CO[C@@H]1C[C@@H]2O [Taxol, reference compound]
- BWL % Max [6]: 4%
- Lethality [6]: 0/8
- TVI % ± SE [6]: 0%

Molecule: CC1=C(/C=C/C(C)=C/C=C/C(C)=C/C(=O)O)C(C)(C)CCC1 [trans-RA (7), trans-Retinoic Acid]
- inhibition (%) at 0.5 μM [1]: 10%
- IC50 [1]: > 500 nM

Molecule: bFGF: basic Fibroblast Growth Factor, inducer of vasoproliferation in the CAM model [reference compound]
- 12th day (72 hours), number of vessels per sponge ([4]; bFGF 0.05 μg/embryo alone): 28 ± 2 vessels per sponge and 19 ± 1 vessels per sponge and 22 ± 1 vessels per sponge
- Δvessels ([4]; bFGF 0.05 μg/embryo alone): 24 ± 1 vessels per sponge and 15 ± 1 vessels per sponge and 19 ± 1 vessels per sponge
